Values after ≈ are worked out from the molar mass of the structure shown.
Experiments:
Staphylococcus aureus [1] = assay: Minimum inhibitory concentration against methicillin-sensitive Staphylococcus aureus
Enterococcus faecium [2] = assay: Minimum inhibitory concentration against vancomycin-A Enterococcus faecium in the presence of 30% bovine serum (n=1) (range = 2>128mg/l); assay type: functional
[3] = test system: Staphylococcus epidermidis; assay: Minimum inhibitory concentration against methicillin-sensitive Staphylococcus epidermidis in the presence of 30% bovine serum; assay type: functional
Enterococcus faecium [4] = assay: Minimum inhibitory concentration against vancomycin-sensitive Enterococcus faecium in the presence of 30% bovine serum(n=1); assay type: functional
Staphylococcus aureus [5] = assay: Minimum inhibitory concentration against methicillin-resistant Staphylococcus aureus
[6] = test system: Staphylococcus haemolyticus; assay: Minimum inhibitory concentration against Staphylococcus haemolyticus in the presence of 30% bovine serum; assay type: functional
Enterococcus faecalis [7] = assay: Minimum inhibitory concentration against vancomycin-A Enterococcus faecalis in the presence of 30% bovine serum (n=4); assay type: functional
[8] = test system: Staphylococcus epidermidis; assay: Minimum inhibitory concentration against methicillin-resistant Staphylococcus epidermidis in the presence of 30% bovine serum; assay type: functional
Enterococcus faecalis [9] = assay: Minimum inhibitory concentration against vancomycin-sensitive Enterococcus faecalis in the presence of 30% bovine serum (n=3) (range = 0.5-1mg/l); assay type: functional
Enterococcus faecalis [10] = assay: Minimum inhibitory concentration against vancomycin-sensitive Enterococcus faecalis in the presence of 30% bovine serum (n=3); assay type: functional
Enterococcus faecalis [11] = assay: Minimum inhibitory concentration against vancomycin-A Enterococcus faecalis in the presence of 30% bovine serum(n=4) (range = 0.5-8 mg/L); assay type: functional
Enterococcus faecium [12] = assay: Minimum inhibitory concentration against vancomycin-A Enterococcus faecium in the presence of 30% bovine serum (n=1); assay type: functional
Enterococcus faecalis [13] = assay: Minimum inhibitory concentration against vancomycin-sensitive Enterococcus faecalis in the presence of 30% bovine serum(n=3)(range = 0.5-1mg/l); assay type: functional
Enterococcus faecium [14] = assay: Minimum inhibitory concentration against vancomycin-A Enterococcus faecium in the presence of 30% bovine serum (n=1) (range = 64>128mg/L); assay type: functional
Enterococcus faecium [15] = assay: Minimum inhibitory concentration against vancomycin-A Enterococcus faecium in the presence of 30% bovine serum (n=1) (range = 1>128mg/l); assay type: functional
Enterococcus faecalis [16] = assay: Minimum inhibitory concentration against vancomycin-A Enterococcus faecalis in the presence of 30% bovine serum(n=4) (range = 16>128mg/L); assay type: functional
Enterococcus faecalis [17] = assay: Minimum inhibitory concentration against vancomycin-A Enterococcus faecalis in the presence of 30% bovine serum(n=4) (range = 0.5-8mg/L); assay type: functional
Enterococcus faecalis [18] = assay: Minimum inhibitory concentration against vancomycin-sensitive Enterococcus faecalis in the presence of 30% bovine serum(n=3); assay type: functional
Enterococcus faecium [19] = assay: Minimum inhibitory concentration against vancomycin-A Enterococcus faecium in the presence of 30% bovine serum (n=1) (range = 0.25-32mg/l); assay type: functional

SMILES | MIC (Staphylococcus aureus [1]) | MIC (Enterococcus faecium [2]) | MIC [3] | MIC (Enterococcus faecium [4]) | MIC (Staphylococcus aureus [5]) | MIC [6] | MIC (Enterococcus faecalis [7]) | MIC [8] | MIC (Enterococcus faecalis [9]) | MIC (Enterococcus faecalis [10]) | MIC (Enterococcus faecalis [11]) | MIC (Enterococcus faecium [12]) | MIC (Enterococcus faecalis [13]) | MIC (Enterococcus faecium [14]) | MIC (Enterococcus faecium [15]) | MIC (Enterococcus faecalis [16]) | MIC (Enterococcus faecalis [17]) | MIC (Enterococcus faecalis [18]) | MIC (Enterococcus faecium [19])
CN(Cc1c[nH]c2ccccc12)[C@H]1C(=O)N[C@@H]2Cc3ccc(cc3)Oc3cc4cc(c3O[C@@H]3OC(C(=O)O)C(O)[C@H](O)C3NCc3c[nH]c5ccccc35)Oc3ccc(cc3Cl)[C@@H](O)C3NC(=O)[C@H](NC(=O)[C@@H]4NC(=O)[C@@H](NC2=O)c2cc(cc(O)c2Cl)Oc2cc1ccc2O)c1ccc(O)c(c1)-c1c(O[C@H]2O[C@H](CO)[C@@H](O)[C@H](O)[C@@H]2O)cc(O)cc1[C@@H](C(=O)O)NC3=O (some centres undefined) | 4 µg/mL (≈ 2.21 µM) | > 128 µg/mL | 64 µg/mL | 2 µg/mL | 2 µg/mL (≈ 1.11 µM) | > 128 µg/mL | 32 µg/mL | 128 µg/mL | 1 µg/mL | – | – | – | – | – | – | – | – | – | –
CCCCCCCCOc1ccc(CNC2[C@H](Oc3c4cc5cc3Oc3ccc(cc3Cl)[C@@H](O)C3NC(=O)[C@H](NC(=O)[C@@H]5NC(=O)[C@H]5NC(=O)[C@@H](Cc6ccc(cc6)O4)NC(=O)[C@H](NC)c4ccc(O)c(c4)Oc4cc(O)c(Cl)c5c4)c4ccc(O)c(c4)-c4c(O[C@H]5O[C@H](CO)[C@@H](O)[C@H](O)[C@@H]5O)cc(O)cc4[C@@H](C(=O)NCCCN(C)C)NC3=O)OC(C(=O)NCCCN(C)C)C(O)[C@@H]2O)cc1 (some centres undefined) | 0.5 µg/mL (≈ 0.258 µM) | – | 0.125 µg/mL | 0.13 µg/mL | 0.25 µg/mL (≈ 0.129 µM) | 4 µg/mL | – | – | – | 0.25 µg/mL | 8 µg/mL | 0.8 µg/mL | – | – | – | – | – | – | –
CN(Cc1ccc2ccccc2c1)[C@H]1C(=O)N[C@@H]2Cc3ccc(cc3)Oc3cc4cc(c3O[C@@H]3OC(C(=O)O)C(O)[C@H](O)C3N)Oc3ccc(cc3Cl)[C@@H](O)C3NC(=O)[C@H](NC(=O)[C@@H]4NC(=O)[C@@H](NC2=O)c2cc(cc(O)c2Cl)Oc2cc1ccc2O)c1ccc(O)c(c1)-c1c(O[C@H]2O[C@H](CO)[C@@H](O)[C@H](O)[C@@H]2O)cc(O)cc1[C@@H](C(=O)O)NC3=O (some centres undefined) | 2 µg/mL (≈ 1.18 µM) | – | 16 µg/mL | 1 µg/mL | 2 µg/mL (≈ 1.18 µM) | 128 µg/mL | 128 µg/mL | 32 µg/mL | – | – | – | – | 1 µg/mL | > 128 µg/mL | – | – | – | – | –
CCCCn1cc(CNC2[C@H](Oc3c4cc5cc3Oc3ccc(cc3Cl)[C@@H](O)C3NC(=O)[C@H](NC(=O)[C@@H]5NC(=O)[C@H]5NC(=O)[C@@H](Cc6ccc(cc6)O4)NC(=O)[C@H](N(C)Cc4cn(CCCC)c6ccccc46)c4ccc(O)c(c4)Oc4cc(O)c(Cl)c5c4)c4ccc(O)c(c4)-c4c(O[C@H]5O[C@H](CO)[C@@H](O)[C@H](O)[C@@H]5O)cc(O)cc4[C@@H](C(=O)O)NC3=O)OC(C(=O)O)C(O)[C@@H]2O)c2ccccc21 (some centres undefined) | 4 µg/mL (≈ 2.08 µM) | – | 4 µg/mL | < 0.125 µg/mL | 2 µg/mL (≈ 1.04 µM) | 64 µg/mL | – | 32 µg/mL | – | 0.25 µg/mL | – | – | – | – | > 128 µg/mL | > 128 µg/mL | – | – | –
CN(C)CCCNC(=O)C1O[C@@H](Oc2c3cc4cc2Oc2ccc(cc2Cl)[C@@H](O)C2NC(=O)[C@H](NC(=O)[C@@H]4NC(=O)[C@H]4NC(=O)[C@@H](Cc5ccc(cc5)O3)NC(=O)[C@H](N(C)Cc3c[nH]c5ccccc35)c3ccc(O)c(c3)Oc3cc(O)c(Cl)c4c3)c3ccc(O)c(c3)-c3c(O[C@H]4O[C@H](CO)[C@@H](O)[C@H](O)[C@@H]4O)cc(O)cc3[C@@H](C(=O)NCCCN(C)C)NC2=O)C(NCc2c[nH]c3ccccc23)[C@@H](O)C1O (some centres undefined) | 2 µg/mL (≈ 1.01 µM) | – | 1 µg/mL | 0.25 µg/mL | 1 µg/mL (≈ 0.506 µM) | 2 µg/mL | – | 2 µg/mL | – | – | – | – | – | – | – | – | 8 µg/mL | < 0.125 µg/mL | 32 µg/mL
